Experimental findings from patent publication US7781580B2, “Stilbene derivatives as new cancer therapeutic agents” (Virginia Commonwealth University, priority 2007, dated 2010) are described below.

Data set [1] relates to tubulin (colchicine site). Nature of the data set: [3H]-colchicine competition for binding tubulin. The following applies: 20 min, 37° C. On the procedure: FIG. 3a-d. […] (a) Effect of stilbene 4a. Pure tubulin was incubated with various concentrations of stilbene 4a, 10 μM nocodazole, and 10 μM paclitaxel in the polymerization buffer. The OD at 340 nm was monitored every minute by SpectraMAX 250 and plotted against time. (b) Effect of stilbene 4c. (c) Comparison of same concentrations of stilbenes 4a, 4a trans, 4c and 4c trans with control. […] The radioactivity of the tubulin was counted. […] All experiments were done in triplicates.
Tubulin retained in the Microcon was washed three times with PBS. The radioactivity of the final concentrated tubulin was determined by a scintillation counter.

In data set [2] the test system is SNU423 hepatocellular carcinoma cells. Put plainly: Alamar Blue cell growth inhibition, SNU423. In kind it is cell-based. A digest of the protocol: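 Cells at 50% confluence were treated for 48 h in triplicate with 0-10 μM compound or 0.1% DMSO vehicle. Alamar Blue was added at 1/10 volume for 2 h, and absorbance at 570 and 600 nm gave % growth via the manufacturer's extinction-coefficient formula relative to vehicle controls.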
For orientation: The colour change of resazurin is a common sign of viable cells or microbes.

A further data set concerns UCI101 cells. Nature of the data set: cell cycle analysis (propidium iodide, FACScan), UCI101. In kind it is cell-based. On the procedure:
Cells were stained with propidium iodide and analyzed with FACScan. Both 5b at 3 μM and stilbene 4a at 30 nM induce a subG0/1 population that represents the dead population. At higher concentrations of either compound, nearly all cells are dead.
(a) In vitro sensitivity of UCI101 cells toward three potential stilbene prodrugs, 5a-c, was tested in 96-well plates using Alamar Blue™ assays to determine cell growth inhibition. […] (b) 5b induces cell cycle change and apoptosis in UCI101 cells. […] A subG0/1 population, representing apoptotic cells, appeared along with a decrease of the G1/G2 ratio after cells were treated with 3 μM 5b. […] (c) Cells treated with stilbene 4a and 5b were stained with phospho-histone 3B, a mitotic marker. The positive signals of phospho-histone 3B were shown in green and nuclei were stained with DAPI in blue. […] (d) In vivo efficacy of 5b compared with stilbene 4a. Nude mice were injected with UCI101 ovarian cancer cells and treated with 7 doses of 5b,c or stilbene 4a every 2-3 days. Tumor volume was calculated and plotted against days.

In data set [3] the test system is UCI101 ovarian cancer cells (xenograft). Nature of the data set: UCI101 xenograft in nude mice. Type of data set: in vivo. The following applies: mouse, in vivo. On the procedure:
(a) In vitro sensitivity of UCI101 cells toward three potential stilbene prodrugs, 5a-c, was tested in 96-well plates using Alamar Blue™ assays to determine cell growth inhibition. […] (b) 5b induces cell cycle change and apoptosis in UCI101 cells. Cells were incubated with 5b at 1, 3, 10 μM for 16 hours followed by PI staining and flow cytometry analysis. A subG0/1 population, representing apoptotic cells, appeared along with a decrease of the G1/G2 ratio after cells were treated with 3 μM 5b. Higher concentration (10 μM) of 5b completely killed cells, as was the case with stilbene 4a at […]. (c) Cells treated with stilbene 4a and 5b were stained with phospho-histone 3B, a mitotic marker. The positive signals of phospho-histone 3B were shown in green and nuclei were stained with DAPI in blue. […] (d) In vivo efficacy of 5b compared with stilbene 4a. Nude mice were injected with UCI101 ovarian cancer cells and treated with 7 doses of 5b,c or stilbene 4a every 2-3 days. Tumor volume was calculated and plotted against days.
We next tested whether 5b could be converted into stilbene 4a in circulation. […] Blood was collected at 20, 60 and 240 min after injection for spot check of stilbene 4a level in serum. […] The in vivo efficacy of 5b and 5c was compared to stilbene 4a in a pilot study using 5 mice in each group.

Consider `COc1cc(/C=C\c2ccc(OC)c(N)c2)cc(OC)c1` [4a, (Z)-5-[2-(3,5-Dimethoxy-phenyl)-vinyl]-2-methoxy-phenylamine], for which, in data set [1], the “competition with [3H]-colchicine for tubulin” value was “dose-dependent suppression of tubulin-colchicine interaction”. The “relative potency” value in data set [2] (SNU423) was “much more potent than the trans counterparts”. Besides, the “effective concentration, blocking cell proliferation” value in data set [2] (SNU423, 48 hours) came to 0.03 µM. Further, the “cell cycle effect” value in the data set on UCI101 cells (4a at 30, 100 nM, 5b at 1, 3, 10 μM) was “induced G2/M cell cycle arrest and accumulation of the subG1/0 population”. Besides, in the data set with UCI101 cells (24 hours), the “concentration inducing a subG0/1 (dead) population” value is 30 nM. Moreover, the mouse weight result in data set [3] is on record as “did not show any significant change”.
